± gives the expanded uncertainty stated by the source.
Assays:
[1] = refractive index (Na D-line) (dimensionless); conditions: 293.15 K; 101.33 kPa; Liquid; Standard Abbe refractometry
[2] = Liquid; for mass density: 293.15 K, 101.33 kPa, Vibrating tube method; for Normal boiling temperature: Ebulliometric method (Recirculating still)

refractive index [1] | mass density [2] [kg/m3] | Normal boiling temperature [2] [°C] | SMILES
1.3283 ± 0.0004 | 791.1 ± 1 | 64.41 ± 0.3 | CO [methanol]
1.3439 ± 0.0004 | 782.1 ± 1 | 81.44 ± 0.3 | CC#N [acetonitrile]

Source: the NIST ThermoML archive (doi:10.1016/j.jct.2016.05.011)
